Measurements taken from patent publication US10058584B2, “Methods of improving behavioral therapies” (Emory University, priority 2010, dated 2018).

Experiments:
female prairie voles = assay: Partner preference test immediately after 6 hour cohabitation (experiment 1); format: in vivo, prairie vole; conditions: intraperitoneal, tested immediately after cohabitation, FIG. 1
Excerpt: Social bonding in prairie voles is a complex social cognitive process, which involves the synthesis of social motivation, social information process and social learning. Bonding can be efficiently assayed in the laboratory using a partner preference paradigm (Ahern, 2009). The formation of a partner preference in female prairie voles is dependent on OT (Williams, 1994). In the absence of mating, 24 hrs of cohabitation is typically needed for the development of a partner preference. However, OT administration accelerates partner preference formation to 6 hrs or less. […] Melanotan I (MTI) and Melanotan II (MTII), synthetic α-MSH analogues, which act on melanocortin ¾ receptors, and busprione (BUS), a 5-HT1a receptor partial agonist, We administered to female prairie voles and assessed partner preference. […]
Female prairie voles were injected intraperitoneally with either Melanotan II (1.10 mg/kg; Sigma Aldrich, St. Louis, Mo.), buspirone (8, 30 mg/kg; Sigma Aldrich, St. Louis, Mo.) or a saline control in a dissolved in a volume of 0.1 ml 0.1% sterile saline. […] The pairs were cohabitated for six hours and video recorded to monitor for sexual behavior. […] The videos were analyzed afterwards for mating attempts and animals that mated were excluded from the study. […] The time the subject spent in side by side contact with no joint motion was scored using the CleverSys Behavioral Analysis System. […]

female voles = conditions: OT administered; without mating 24 hrs or more needed; cited from earlier work

| SMILES | time spent with the partner male vs. the stranger male (partner preference) (female prairie voles; high dose) | time spent with the partner male vs. the stranger male (partner preference) (female prairie voles; low dose) | cohabitation period to partner preference formation (female voles) |
| --- | --- | --- | --- |
| O=C1CC2(CCCC2)CC(=O)N1CCCCN1CCN(c2ncccn2)CC1 [BUS, buspirone] | failed to spend significantly more time with either stimulus animal | spent significantly more time with the partner male vs. the stranger male | – |
| CC[C@H](C)[C@@H]1NC(=O)[C@H](Cc2ccc(O)cc2)NC(=O)[C@@H](N)CSSC[C@@H](C(=O)N2CCC[C@H]2C(=O)N[C@@H](CC(C)C)C(=O)NCC(N)=O)NC(=O)[C@H](CC(N)=O)NC(=O)[C@H](CCC(N)=O)NC1=O [OT, Oxytocin] | – | – | ≤ 6 h |
